Measured values taken from patent US20240174714A1, “TREATMENT OF SKIN DISORDERS” (priority 2021, published 2024).
Converted amounts (≈) assume the structure as drawn. Like-named read-outs stand apart in the source and are kept apart here. Square brackets hold non-standard residues; d marks the D form. Peptide text beside a SMILES is read from it. * marks the point of attachment. NH((S)CH(Me)CH2NMe2) = C[C@@H](CN(C)C)N*; NH(1-CH2NMe2-cBu) = CN(C)CC1(N*)CCC1; Gly(octyl) = CCCCCCCC[C@H](N)C(=O)O; Oxazole4CO(2-Me) = Cc1nc(C(=O)*)co1; hCha = N[C@@H](CCC1CCCCC1)C(=O)O; X8 = O=C(c1coc(-c2ccccc2)n1)*; X2 = C1CCN(CC2(N*)CCC2)CC1; Aib = CC(C)(N)C(=O)O; βAla = NCCC(=O)O

Tests used:
[1] = tested on: intracellular Leishmania donovani MHOM-ET-67/L82 amastigotes; experiment: In vitro antiprotozoal assay, intracellular amastigotes; assay type: cell-based; conditions: intracellular amastigotes; read-out: L.don.InMac IC50
Protocol: (§3) The testing of the inventive compounds against Leishmania donovani (strain MHOM/ET/67/L82) was performed in 96 well plates at concentrations in serial dilutions. Tests were done in triplicate.

[2] = tested on: rat myoblast cells (L6); experiment: Cytotoxicity assay (Alamar Blue) on L6-cells; assay type: cell-based
Protocol: (§1) Tests were done in triplicate.
(§2) The plates were incubated for additional 2 h.

[3] = tested on: axenic Leishmania donovani MHOM-ET-67/L82 amastigotes; experiment: In vitro antiprotozoal assay, axenic amastigotes; assay type: cell-based; conditions: axenic amastigotes; read-out: L.don.ax. IC50
Protocol: as §3

[4] = tested on: Staphylococcus aureus ATCC 43300, MRSA; assay type: cell-based; conditions: ATCC 43300, 18 h
Protocol: The antibacterial activity of inventive compounds was evaluated in duplicate in a further Minimum Inhibitory Concentration (MIC) assay.
Bacteria were cultured in Cation-adjusted Mueller Hinton broth (CAMHB) at 37° C. overnight. A sample of each culture was then diluted 40-fold in fresh broth and incubated at 37° C. for 1.5-3 h. The resultant mid-log phase cultures were diluted (CFU/mL measured by OD600), then added to each well of the compound containing plates, giving a cell density of 5×10^5 CFU/mL and a total volume of 50 μL. All the plates were covered and incubated at 37° C. for 18 h without shaking.
Samples were prepared in DMSO and serially diluted 2 fold 8 times. Each sample concentration was prepared in 384-well plates, non-binding surface plate (NBS; Corning 3640) for the bacterial strain ATCC 43300, MRSA. The final DMSO concentration was at a maximum of 0.5%.
Inhibition of bacterial growth was determined measuring absorbance at 600 nm (OD600), using a Tecan M1000 Pro monochromator plate reader. The percentage of growth inhibition was calculated for each well, using the negative control (media only) and positive control (bacteria without inhibitors) on the same plate as references. […] Vancomycin was used as positive bacterial inhibitor standards.

[5] = Cytotoxicity assay (Alamar Blue) on L6-cells; assay type: cell-based, rat; conditions: rat
Protocol: as §1, §2

[6] = tested on: Staphylococcus aureus ATCC BAA-1556, USA300 MRSA; experiment: microbe, parasite or virus in culture; assay type: cell-based
Protocol: Pre-formulated compound solution was diluted in 100% DMSO to prepare a 1.6 mg/mL working stock solution. […] The concentration range was 0.032 to 32 μg/mL.

[7] = tested on: Staphylococcus aureus NARSA VRS2; experiment: microbe, parasite or virus in culture; assay type: cell-based; conditions: Staphylococcus aureus, reference compound, read-out: MIC (Concurrent)
[8] = tested on: Staphylococcus aureus ECL 2963646; experiment: microbe, parasite or virus in culture; assay type: cell-based; conditions: Staphylococcus aureus, ECL2963646, reference compound, read-out: MIC (Concurrent)
[9] = tested on: Staphylococcus aureus NARSA NRS22; experiment: microbe, parasite or virus in culture; assay type: cell-based; conditions: Staphylococcus aureus, reference compound, read-out: MIC (Concurrent)
[10] = tested on: Staphylococcus aureus ATCC BAA-1556; experiment: microbe, parasite or virus in culture; assay type: cell-based; conditions: Staphylococcus aureus, ATCCBAA1556; reference compound; ATCC BAA-1556, Methicillin resistant; read-out: MIC (Concurrent)
[11] = tested on: S. aureus (USA300 MRSA, BAA-1556); experiment: S. aureus dermal infection model in ICR mice, CFU/skin; assay type: in vivo, Staphylococcus aureus; conditions: 25 hours post inoculation; topical BID at 1 and 7 h post infection, 20 μL/mouse; 6027 1% in DMSO, fusidic acid 2%
Protocol: Inoculum preparation. The testing strain, S. aureus USA300 MRSA (BAA-1556), was obtained from the frozen working stock and thawed at room temperature. A 0.2 mL aliquot was inoculated into 20 mL Brain-Heart Infusion broth (BHI) and then incubated at 35-37° C. with shaking (120 rpm) for 8 h. Bacterial cells in the 20 mL culture were pelleted by centrifugation at 3,500×g for 15 minutes and then re-suspended in 10 mL cold PBS (>8.0×10^9 CFU/mL, OD620 1.8-2.0). The culture was then diluted in PBS to the target inoculum of 1.0×10^7 CFU/mL. The actual bacterial counts were determined by plating dilutions onto nutrient agar (NA) plates followed by 20-24 h incubation and colony counting. The actual CFU counts were 1.04×10^7 CFU/mL.
S. aureus (USA300 MRSA, BAA-1556) dermal infection model. Groups of 5 female ICR mice weighing 24±2 g were used. Animals were anesthetized with etomidate-lipuro emulsion (20 mg/10 mL) at 20 mg/kg by intravenous (IV) injection, and then the fur on the back was removed by an electric shaver, and the epidermal layer was disrupted with an abrasive paper. Mice were inoculated topically (TOP) on the wound area with S. aureus (MRSA, BAA-1556) suspension, 5 μL/mouse. The target inoculation density was 5×10^4 CFU/mouse and the actual inoculum count 5.2×10^4 CFU/mouse. Animals were housed separately after infection. Compound 6027 in DMSO at 1% was administered topically (TOP) twice (BID) at 1 and 7 h post infection. Reference control agent, fusidic acid cream at 20 mg/gram (2%), was administered TOP BID at 1 and 7 h post infection. One infected and untreated group was sacrificed at 1 h after infection for the initial (baseline) bacterial counts. The dose volumes were 20 μL/mouse for all dosing groups.
Animals were sacrificed at 1 or 25 h after inoculation with CO2 asphyxiation. The infected skin samples of the wound infection (around 2 cm 2 areas) were excised and were homogenized in 1 mL PBS (pH 7.4) with a polytron homogenizer. A 0.1 mL aliquot of each homogenate was used for serial 10-fold dilutions and plated onto NA plates for bacterial enumeration. The bacterial counts (CFU/skin) in skin tissues were calculated and the percentage decrease in counts compared to the corresponding vehicle control (placebo) was calculated with the following formula: Decrease (%)=[(CFU/skin of placebo —CFU/skin of treatment)/(CFU/skin of placebo)]×100%.

[12] = tested on: Staphylococcus aureus NARSA NRS382; experiment: microbe, parasite or virus in culture; assay type: cell-based; conditions: Staphylococcus aureus, NRS382, read-out: MIC (Concurrent) μg/mL
[13] = tested on: Streptococcus pyogenes ATCC 19615; experiment: MIC broth microdilution, method 1; assay type: cell-based; conditions: Streptococcus pyogenes, ATCC19615, reference compound, read-out: MIC (Concurrent)
[14] = tested on: Streptococcus agalactiae ATCC 12386; experiment: MIC broth microdilution, method 1; assay type: cell-based; conditions: Streptococcus agalactiae, ATCC12386, reference compound, read-out: MIC (Concurrent)
[15] = tested on: Staphylococcus aureus NARSA NRS127; experiment: microbe, parasite or virus in culture; assay type: cell-based; conditions: Staphylococcus aureus, NRS127, read-out: MIC (Concurrent) μg/mL
[16] = tested on: Staphylococcus aureus ATCC 33591; experiment: microbe, parasite or virus in culture; assay type: cell-based; conditions: Staphylococcus aureus, ATCC33591, read-out: MIC (Concurrent) μg/mL
[17] = tested on: Staphylococcus aureus NARSA NRS119; experiment: microbe, parasite or virus in culture; assay type: cell-based; conditions: Staphylococcus aureus, NRS119, read-out: MIC (Concurrent) μg/mL
[18] = tested on: Staphylococcus aureus ATCC BAA-1717; experiment: microbe, parasite or virus in culture; assay type: cell-based; conditions: Staphylococcus aureus, ATCCBAA1717, read-out: MIC (Concurrent) μg/mL
[19] = tested on: Staphylococcus aureus ATCC 29213; experiment: MIC broth microdilution, method 1; assay type: cell-based; conditions: Staphylococcus aureus, ATCC29213, reference compound, read-out: MIC (Concurrent)
[20] = tested on: Clostridium difficile ATCC BAA-1805; experiment: microbe, parasite or virus in culture; conditions: Clostridioides difficile, ATCCBAA1805, read-out: MIC (Concurrent) μg/mL
Protocol: The antibacterial activity of inventive compounds was determined in duplicate in a Minimum Inhibitory Concentration (MIC) assay.
The antibacterial activity of 6027 acetate was measured using the in vitro broth microdilution assay under assay conditions described by the Clinical and Laboratory Standards Institute. […] Pre-formulated DMSO stock solution (26.67 mg/mL) was provided by sponsor. The 26.67 mg/mL stock solution was then diluted in DMSO to prepare a 6.4 mg/mL working stock solution. The 6.4 mg/mL working stock solution was diluted by 2-fold serial titrations in DMSO, for a total of 11 test concentrations. A 4 μl aliquot of each dilution was added to 196 of broth medium seeded with the organism suspension in wells of a 96 well plate (bacterial count: 2 −8×10^5 colony forming units/mL final). The final volume was 200 μl in each well and the final DMSO concentration was 2 percent. Test concentrations were 128 to 0.125 μg/mL.
Following incubation, the plates were visually examined, and wells were scored for growth or complete growth inhibition to define the minimum inhibitory concentration. […] Vehicle-control and Vancomycin or Linezolid, as depicted at Table 8, were used as blank and positive controls, respectively.

[21] = tested on: Staphylococcus aureus NARSA NRS383; experiment: microbe, parasite or virus in culture; assay type: cell-based; conditions: Staphylococcus aureus, NRS383, read-out: MIC (Concurrent) μg/mL

CCCCCCCC[C@H](NC(=O)[C@@H]1CCCN1C(=O)c1coc(-c2ccccc2)n1)C(=O)N[C@@H](CC(C)C)C(=O)NC(C)(C)C(=O)N[C@@H](CC(C)C)C(=O)N[C@@H](CC(C)C)C(=O)NC(C)(C)C(=O)NC(C)(C)C(=O)NCCC(=O)N[C@@H](C)CN(C)C [Compound 5906, (2S)-N-[(1S)-1-[(1-{[(1S)-1-{[(1S)-1-{[1-({1-[(2-{[(2S)-1-(dimethylamino)propan-2-yl]carbamoyl}ethyl)carbamoyl]-1-methylethyl}carbamoyl)-1-methylethyl]carbamoyl}-3-methylbutyl]carbamoyl}-3-methylbutyl]carbamoyl}-1-methylethyl)carbamoyl]-3-methylbutyl]-2-{[(2S)-1-(2-phenyl-1,3-oxazole-4-carbonyl)pyrrolidin-2-yl]formamido}decanamide] (X8-P[Gly(octyl)]L[Aib]LL[Aib][Aib][βAla]-{NH((S)CH(Me)CH2NMe2)})
IC50 [1]: 14.1 nM
IC50 [2]: 445 nM
IC50 [3]: 3.7 nM

Cc1nc(C(=O)N2CCC[C@H]2C(=O)N[C@@H](CCC2CCCCC2)C(=O)N[C@@H](CC(C)C)C(=O)NC(C)(C)C(=O)N[C@@H](CC(C)C)C(=O)N[C@@H](CC(C)C)C(=O)NC(C)(C)C(=O)NC(C)(C)C(=O)NCCC(=O)NC2(CN3CCCCC3)CCC2)co1 [Compound 6483, (2S)-2-[(2S)-4-cyclohexyl-2-{[(2S)-1-(2-methyl-1,3-oxazole-4-carbonyl)pyrrolidin-2-yl]formamido}butanamido]-4-methyl-N-(1-methyl-1-{[(1S)-3-methyl-1-{[(1S)-3-methyl-1-({1-methyl-1-[(1-methyl-1-{[2-({1-[(piperidin-1-yl)methyl]cyclobutyl}carbamoyl)ethyl]carbamoyl}ethyl)carbamoyl]ethyl}carbamoyl)butyl]carbamyl}butyl]carbamoyl}ethyl)pentanamide] ({Oxazole4CO(2-Me)}-P[hCha]L[Aib]LL[Aib][Aib][βAla]-X2)
MIC [4]: 8 µg/mL (≈ 6.62 µM)
IC50 at 68 h [5]: 486 nM
IC50 [3]: 4.1 nM
MIC ([6]; ATCC BAA-1556): 8 µg/mL (≈ 6.62 µM)

CC(=O)NC[C@H]1CN(c2ccc(N3CCOCC3)c(F)c2)C(=O)O1 [Linezolid, reference compound]
MIC [7]: 2 µg/mL (≈ 5.93 µM)
MIC [8]: 2 µg/mL (≈ 5.93 µM)
MIC [9]: 2 µg/mL (≈ 5.93 µM)
MIC [10]: 2 µg/mL (≈ 5.93 µM)

CC(=O)O[C@H]1C[C@@]2(C)[C@@H](C[C@@H](O)[C@H]3[C@@]4(C)CC[C@@H](O)[C@@H](C)[C@@H]4CC[C@@]32C)/C1=C(\CCC=C(C)C)C(=O)O [Fusidic acid, fusidic acid, reference compound]
Decrease (%) in CFU/skin vs vehicle control [11]: 99%
LogCFU/skin after 25 hours (Standard error of the mean − SEM) [11]: 4.82 (0.26) LogCFU/skin

COc1cc([C@@H]2c3cc4c(cc3[C@H](O)[C@H]3COC(=O)[C@H]23)OCO4)cc(OC)c1OC [Podophyllotoxin, reference compound]
IC50 ([2]; Rattus norvegicus, Myoblast, read-out: IC50 Concurrent (nM)): 19.3 nM
IC50 ([2]; Rattus norvegicus, Myoblast, read-out: IC50 of reference drug): 50 ± 10 nM

CN[C@H](CC(C)C)C(=O)N[C@H]1C(=O)N[C@@H](CC(N)=O)C(=O)N[C@H]2C(=O)N[C@H]3C(=O)N[C@H](C(=O)N[C@H](C(=O)O)c4cc(O)cc(O)c4-c4cc3ccc4O)[C@H](O)c3ccc(c(Cl)c3)Oc3cc2cc(c3O[C@@H]2O[C@H](CO)[C@@H](O)[C@H](O)[C@H]2O[C@H]2C[C@](C)(N)[C@H](O)[C@H](C)O2)Oc2ccc(cc2Cl)[C@H]1O [Vancomycin, reference compound]
MIC [12]: 1 µg/mL (≈ 0.69 µM)
MIC [13]: 0.25 µg/mL (≈ 0.173 µM)
MIC [14]: 0.5 µg/mL (≈ 0.345 µM)
MIC [15]: 1 µg/mL (≈ 0.69 µM)
MIC [16]: 1 µg/mL (≈ 0.69 µM)
MIC [17]: 1 µg/mL (≈ 0.69 µM)
MIC [18]: 0.5 µg/mL (≈ 0.345 µM)
MIC [19]: 0.5 µg/mL (≈ 0.345 µM)
MIC [20]: 0.5 µg/mL (≈ 0.345 µM)
MIC ([6]; Staphylococcus aureus): 1 µg/mL (≈ 0.69 µM)
MIC [21]: 0.5 µg/mL (≈ 0.345 µM)

Cc1nc(C(=O)N2CCC[C@H]2C(=O)N[C@@H](CCC2CCCCC2)C(=O)N[C@@H](CC(C)C)C(=O)NC(C)(C)C(=O)N[C@@H](CC(C)C)C(=O)N[C@@H](CC(C)C)C(=O)NC(C)(C)C(=O)NC(C)(C)C(=O)NCCC(=O)NC2(CN(C)C)CCC2)co1 [Compound 6025, (2S)-2-[(2S)-4-cyclohexyl-2-{[(2S)-1-(2-methyl-1,3-oxazole-4-carbonyl)pyrrolidin-2-yl]formamido}butanamido]-N-(1-{[(1S)-1-{[(1S)-1-({1-[(1-{[2-({1-[(dimethylamino)methyl]cyclobutyl}carbamoyl)ethyl]carbamoyl}-1-methylethyl)carbamoyl]-1-methylethyl}carbamoyl)-3-methylbutyl]carbamoyl}-3-methylbutyl]carbamoyl}-1-methylethyl)-4-methylpentanamide] ({Oxazole4CO(2-Me)}-P[hCha]L[Aib]LL[Aib][Aib][βAla]-{NH(1-CH2NMe2-cBu)})
IC50 [1]: 41.1 nM
IC50 [2]: 1910 nM
IC50 [3]: 9.9 nM
MIC ([6]; ATCC BAA-1556): 4 µg/mL (≈ 3.43 µM)
